Reference: article PMC6424980, “Distinct G protein-coupled receptor phosphorylation motifs modulate arrestin affinity and activation and global conformation” (Nature Communications, 2019)
“Also recorded” adds a separate entry of the source.

How the values were obtained:
[1] = molecular target: T1, arrestin-1 (monomerizing mutant F85A, F197A) (Bos taurus, UniProt P08168, F197A/F85A); assay: Fluorescence anisotropy binding of fluorescein-labelled peptides to arrestin-1; parameters: species or system bovine
T1 construct: made in house; host or cells: E. coli NiCo (DE3) cells (New England Biolabs), pET-15b vector
T1 sequence (P08168 whole entry F85A/F197A): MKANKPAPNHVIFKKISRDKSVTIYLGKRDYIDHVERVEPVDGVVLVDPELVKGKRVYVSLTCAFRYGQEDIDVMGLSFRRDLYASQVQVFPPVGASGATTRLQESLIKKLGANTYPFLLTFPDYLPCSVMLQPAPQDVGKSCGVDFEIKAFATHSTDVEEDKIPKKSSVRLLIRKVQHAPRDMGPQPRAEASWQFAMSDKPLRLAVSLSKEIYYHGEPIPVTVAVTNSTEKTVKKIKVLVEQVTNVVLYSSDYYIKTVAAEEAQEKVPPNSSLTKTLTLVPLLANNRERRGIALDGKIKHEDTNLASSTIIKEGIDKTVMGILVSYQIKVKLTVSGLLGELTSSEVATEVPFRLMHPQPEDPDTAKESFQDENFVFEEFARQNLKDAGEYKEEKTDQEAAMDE
From the text: (§1) Synthesized cDNAs of bovine arrestin-1, human arrestin-2 and human arrestin-3 were ordered from Genewiz, amplified by PCR and cloned (Supplementary Information Table 5) into the pET-15b vector (Novagen), using the Gibson Assembly protocol. The constructs contained an N-terminal hexa histidine tag linked by a linker that contained a Tobacco Etch Virus cleavage site (TEV; […]). PCR was used to introduce the monomerizing arrestin-1 mutations (F85A, F197A)[58]. Note that this mutant was employed for fluorescence anisotropy, trypsin digestion, and NMR experiments. Wild-type arrestin-2 and -3 were used for fluorescence anisotropy and trypsin digestion experiments. […] The arrestin-1 in this construct had the wild-type sequence. Note that this construct differs slightly from that previously published[59],[60] and was optimized for purification. We verified the functionality of this fusion construct using the standard centrifugal pull-down assay using phosphorylated rhodopsin in native ROS membranes.
0.1–0.2 mg of lyophilized peptide was dissolved in 50 µl of 50 mM phosphate-buffered saline (PBS) buffer at pH 7.0, and then two molar equivalents of fluorescein-5-maleimide dye stock dissolved in dimethylsulfoxid was added. The reaction was carried out at RT in the dark. After 1 h the reaction was topped up with 1 ml of ice-cold 100% acetone and stored until the next day at −20 °C. The precipitated peptide was centrifuged (13,000 × g) for 10 min. The labeled and precipitated peptide was sedimented, and the supernatant was removed. The peptide was resuspended again in ice-cold acetone, stored for 1 h at −20 °C and centrifuged (13,000 × g) for 10 min. […] The precipitated peptide was dried at RT in the dark. It was dissolved in 50 µl of 20 mM Bis-Tris propane pH 7.0 and 150 mM NaCl and its concentration was determined by absorbance. A molar extinction coefficient of 70,000/M/cm at pH 7.0 was assumed for calculating the concentration of the labeled peptide stock.
An 11-step serial dilution series of arrestin in 20 mM Bis-Tris propane pH 7.0, 150 mM NaCl, 8 mM 2‑mercaptoethanol, 2% (w/w) BSA, 0.02% (v/v) Tween-20 was prepared and transferred to a black high-bottom 384-well plate (Greiner). As control for free peptide, a position with only buffer was included. The peptide was added at a final concentration of 20 nM to each well. The plate was closed by a clear cover and vortexed for 15 s. Afterwards it was centrifuged (800 × g) for 2 min and stored at RT for 20 min. The reading was performed by default settings of PHERAstar plate-reader (BMG Labtech) and excitation‑/emission-wavelengths of 485 nm (12 nm bandpass)/520 nm (30 nm bandpass) were used. The analysis was performed using Origin2016 (Microcal Inc) software by fitting the data to a one-to-one binding model:2 r=R0+△R*P/Kd+P, where r stands for anisotropy, R0 stands for anisotropy of the ligand, ΔR stands for anisotropy of the complex minus anisotropy of the ligand, P stands for the concentration of protein, and Kd stands for the dissociation constant of the ligand.

arrestin-1 (F85A, F197A) = assay: Limited trypsin digestion of arrestin-1 in presence of peptide; format: biochemical, bovine; conditions: arrestin:peptide 1:1.2, 35 °C, SDS PAGE
From the text: as §1
Arrestin (60 µg) was mixed at a 1 to 1.2 molar ratio with peptide and preincubated at RT for 5 min before 1 μl of 0.15 mg/ml trypsin stock was added. The enzymatic digestion was carried out at 35 °C (20 mM Bis-Tris propane pH 7.0, 150 mM NaCl, 10 mM 2‑Mercaptoethanol and 2 mM EDTA). At certain time points (5, 15, 30, 60, 90 min), 5 μl aliquots were quenched with heat incubation in the presence of 20 μl SDS loading buffer (95 °C, 5 min) and then subjected to SDS PAGE. Bands were visualized with InstantBlue (Expedeon).

[2] = test system: arrestin-1 mutants I72B and F197NBD with nonphosphorylated light-activated rhodopsin in ROS membranes; assay: Ternary complex formation (site-directed fluorescence and centrifugal pull-down); format: biochemical, bovine; conditions: 10 µM rhodopsin in ROS, 1 µM arrestin-1 I72B or F197NBD, 100 µM peptide, pH 7
From the text: Recombinant bovine arrestin-1 cloned into the pET15b vector was expressed and purified as described. The basic construct was a modified wild-type sequence that contained no native cysteines (C63A, C128S and C143A) nor tryptophans (W194F). Single cysteine residues were introduced by PCR at sites 72 or 197 as previously described. The I72C mutant was labeled with monobromobimane (Thermo Fisher) and is referred to as I72B. The F197C mutant was labeled with N,N′-Dimethyl-N-(Iodoacetyl)-N′-(7-Nitrobenz-2-Oxa-1,3-Diazol-4-yl)Ethylenediamine (IANBD amide, Thermo Fisher) and is referred to as F197NBD. Labeling was carried out as previously described[43],[61]. Both labeled mutants were assessed to be functionally similar to wild-type arrestin-1 using the Extra Meta II assay, which determines the ability of arrestin-1 to bind and stabilize the active Meta II form of rhodopsin[64].
Under dim-red light, samples were prepared that contained nonphosphorylated rhodopsin (10 µM) in ROS membranes, 1 µM arrestin-1 I72B or F197NBD, ±100 µM peptide in 50 mM HEPES, 130 mM NaCl, pH 7 (150 or 200 µl sample volume). One hundred microliters of the sample was used for fluorescence measurements, and the remainder was used for the centrifugal pull-down assay (50 µl per assay). Steady-state fluorescence measurements were performed using a SPEX Fluorolog (1680) instrument in front-face mode. Bimane fluorescence was recorded using an excitation wavelength of 400 nm and emission 424–600 nm, and NBD fluorescence was recorded using an excitation wavelength of 500 nm and emission 524–660 (2 nm step size, 0.5 s integration per point). Excitation slits were narrowed to 0.1−0.2 nm to minimize light-activation of rhodopsin, and emission slits were set at 4 nm. Pull-down analysis was performed by centrifuging samples at 16,000 × g for 10 min at 20 °C. Selected samples were light activated (>495 nm) for 15 s prior to centrifugation (appr. 60 s delay time). Following centrifugation, the supernatants were removed, and the pellets were solubilized in loading buffer containing 2% SDS and subjected to SDS PAGE. Bands were visualized using Coomassie Brilliant Blue.

CDDEASTTVSKTETSQVAPA [5P, multiply phosphorylated rhodopsin C-terminus peptide lacking key site pS343]
binding to arrestin-1 (in words) [1]: significant loss of affinity | limited trypsin digest pattern of arrestin-1 (conformational change, C-tail displacement) (arrestin-1 (F85A, F197A)): inability to induce conformational changes | ternary complex formation (arrestin-1, nonphosphorylated rhodopsin, peptide) [2]: significant reduction of ternary complex formation; also recorded: could still stimulate ternary complex formation
